Data published in patent publication US9630943B2, “Tetrahydronaphthyl(thio) carboxamides” (BAYER CROPSCIENCE AG, priority 2012, dated 2017).
Like-named read-outs stand apart in the source and are kept apart here.

Assays:
Alternaria brassicae = test: In vivo preventive test on Alternaria brassicae (leaf spot on radish); conditions: radish plants, preventive spray, dose 100 ppm, grading 6 days after contamination
Experimental: Radish plants (“Pernod Clair” variety), sown in starter cups on a 50/50 peat soil-pozzolana substrate and grown at 17° C., are treated at the cotyledon stage by spraying with the active ingredient prepared as described above. Plants, used as controls, are treated with the mixture of acetone/tween/DMSO/water not containing the active material. After 24 hours, the plants are contaminated by spraying the cotyledons with an aqueous suspension of Alternaria brassicae spores (50 000 spores per ml). The spores are collected from a 15-day-old culture. The contaminated radish plants are incubated at 20° C. and at 100% relative humidity. Grading (% of efficacy) is carried out 6 days after the contamination, in comparison with the control plants.

[1] = Measurement of logP values by HPLC on reversed phase columns (EEC directive 79/831 Annex V.A8); format: physicochemical; conditions: for LogP[a] / LogP^[a]: method [a]; for LogP[a]: HPLC on reversed phase columns
Botrytis cinerea = test: In vivo preventive test on Botrytis cinerea (grey mould); conditions: gherkin plants, preventive spray, dose 100 ppm, grading 4 to 5 days after contamination
Experimental: Gherkin plants (“Vert petit de Paris” variety), sown in starter cups on a 50/50 peat soil-pozzolana substrate and grown at 24° C., are treated at the Z11 cotyledon stage by spraying with the active ingredient prepared as described above. Plants, used as controls, are treated with the mixture of acetone/tween/DMSO/water not containing the active material. After 24 hours, the plants are contaminated by spraying the cotyledons with an aqueous suspension of cryopreserved Botrytis cinerea spores (50 000 spores per ml). The spores are suspended in a nutrient solution composed of 10 g/L of PDB, 50 g/L of D-Fructose, 2 g/L of NH4NO3 and 1 g/L of KH2PO4. […] Grading (% of efficacy) is carried out 4 to 5 days after the contamination, in comparison with the control plants.

Uromyces appendiculatus = test: In vivo preventive test on Uromyces appendiculatus (bean rust); conditions: bean plants, preventive spray, dose 100 ppm, grading 11 days after contamination
Experimental: Plants, used as controls, are treated with the mixture of acetone/tween/DMSO/water not containing the active material. After 24 hours, the plants are contaminated by spraying the leaves with an aqueous suspension of Uromyces appendiculatus spores (150 000 spores per ml). […] Grading (% of efficacy) is carried out 11 days after the contamination, in comparison with the control plants.

Septoria tritici = test: In vivo preventive test on Septoria tritici (leaf spot on wheat); conditions: wheat plants, preventive spray, dose 100 ppm, grading 24 days after contamination
Experimental: Wheat plants (“Scipion” variety), sown in starter cups on a 50/50 peat soil-pozzolana substrate and grown at 22° C., are treated at the 1-leaf stage (10 cm height) by spraying with the active ingredient prepared as described above. Plants, used as controls, are treated with the mixture of acetone/tween/DMSO/water not containing the active material. After 24 hours, the plants are contaminated by spraying the leaves with an aqueous suspension of cryopreserved Septoria tritici spores (500 000 spores per ml). […] Grading (% of efficacy) is carried out 24 days after the contamination, in comparison with the control plants.

Pyricularia oryzae = format: in vivo; conditions: rice plants, preventive spray, dose 500 ppm, grading 6 days after contamination
Sphaerotheca fuliginea = test: In vivo preventive test on Sphaerotheca fuliginea (powdery mildew on cucurbits); conditions: gherkin plants, preventive spray, dose 100 ppm, grading 12 days after contamination
Experimental: Gherkin plants (“Vert petit de Paris” variety), sown in starter cups on a 50/50 peat soil-pozzolana substrate and grown at 24° C., are treated at the Z11 cotyledon stage by spraying with the active ingredient prepared as described above. Plants, used as controls, are treated with the mixture of acetone/tween/DMSO/water not containing the active material. After 24 hours, the plants are contaminated by spraying the cotyledons with an aqueous suspension of Sphaerotheca fuliginea spores (100 000 spores per ml). The spores are collected from infected plants. […] Grading (% of efficacy) is carried out 12 days after the contamination, in comparison with the control plants.

Phakopsora pachyrhizi = test: In vivo preventive test on Phakopsora pachyrhizi (soybeans); conditions: soybean plants, preventive spray, dose 10 ppm, evaluated 7 days after inoculation
Pyrenophora teres = test: In vivo preventive test on Pyrenophora teres (net blotch on barley); conditions: barley plants, preventive spray, dose 100 ppm, grading 14 days after contamination
Experimental: Barley plants (“Plaisant” variety), sown in starter cups on a 50/50 peat soil-pozzolana substrate and grown at 22° C., are treated at the 1-leaf stage (10 cm height) by spraying with the active ingredient prepared as described above. Plants, used as controls, are treated with the mixture of acetone/tween/DMSO/water not containing the active material. After 24 hours, the plants are contaminated by spraying the leaves with an aqueous suspension of Pyrenophorateres spores (12 000 spores per ml). The spores are collected from a 12-day-old culture. […] Grading (% of efficacy) is carried out 14 days after the contamination, in comparison with the control plants.

CC1(C)CCc2c(cccc2NC(=S)c2ccoc2C(F)F)C1 [Example 96]
biological efficacy (Alternaria brassicae): ≥ 70%
LogP[a] [1]: 4.39^[a]

CCCC1CCc2c(NC(=O)c3cn(C)nc3C(F)F)cccc2C1C (mixture of isomers) [Example 95]
biological efficacy (Botrytis cinerea): ≥ 80%
LogP[a] [1]: 4.18^[a]

CCCC1(C)CCCc2c(NC(=O)c3cn(C)nc3C(F)F)cccc21 (centres unmarked) [Example 94]
biological efficacy (Uromyces appendiculatus): ≥ 80%
LogP^[a] [1]: 4.08^[a]
biological efficacy (Septoria tritici): ≥ 70%

Cc1nc(C(F)F)c(C(=O)Nc2cccc3c2CCCC3(C)C)s1 [Example 3]
biological efficacy (Pyricularia oryzae): ≥ 90%
LogP^[a] [1]: 3.64^[a]

Cc1nc(C(F)F)c(C(=S)Nc2cccc3c2CCC(C)(C)C3)s1 [Example 97, 4-(difluoromethyl)-N-(6,6-dimethyl-5,6,7,8-tetrahydronaphthalen-1-yl)-2-methyl-1,3-thiazole-5-carbothioamide]
biological efficacy (Sphaerotheca fuliginea): ≥ 80%
chromatographic logP ([1]; pH 2.7): 4.16

CC(C)C1CCCc2c(NC(=O)c3cn(C)nc3C(F)F)cccc21 (centres unmarked) [Example 98]
biological efficacy (Botrytis cinerea): ≥ 90%
biological efficacy (Phakopsora pachyrhizi): ≥ 70%
biological efficacy (Pyrenophora teres): ≥ 90%
LogP[a] [1]: 3.73^[a]

Cc1nn(C)c(F)c1C(=O)Nc1cccc2c1CCCC2(C)C [Example 2, N-(5,5-dimethyl-5,6,7,8-tetrahydronaphthalen-1-yl)-5-fluoro-1,3-dimethyl-1H-pyrazole-4-carboxamide]
chromatographic logP ([1]; pH 2.7): 3.23

Cn1cc(C(=O)Nc2cccc3c2CC(C)(C)CC3)c(C(F)F)n1 [Example 5]
LogP^[a] [1]: 3.25^[a]

CC1c2c(cccc2NC(=O)c2cn(C)nc2C(F)F)CCC1(C)C (centres unmarked) [Example 34]
LogP^[a] [1]: 3.51^[a]

CC1(C)CCc2c(N)cccc2C1 [III-a-3, 6,6-dimethyl-5,6,7,8-tetrahydronaphthalen-1-amine]
chromatographic logP ([1]; reversed phase HPLC columns, method [a]: LC-MS at pH 2.7, 0,1% formic acid in water / acetonitrile, gradient 10% to 95% acetonitrile, amines of formula (III-a), read-out: LogP^[a]): 1.88

CON=C1CCCc2c(NC(=O)c3cn(C)nc3C(F)F)cccc21 [Example 38]
LogP^[a] [1]: 2.56^[a]

CCON=C1CCCc2c(NC(=O)C3=C(C(F)(F)F)OCCS3)cccc21 [Example 74]
LogP^[a] [1]: 3.63^[a]

Cn1cc(C(=O)Nc2cccc3c2CCC(C)(C)C3)c(C(F)F)n1 [Example 43]
LogP^[a] [1]: 3.35^[a]

CCc1nc(C)sc1C(=O)Nc1cccc2c1CC(C)(C)CC2 [Example 24]
LogP^[a] [1]: 3.79^[a]
